Columns and labels:
Carboplatin = compound: C1CC(C1)(C(=O)[O-])C(=O)[O-].N.N.[Pt+2] [Carboplatin]; settings: max 10 µM
Outline: (§1)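 Plates with 1536 wells received cancer cell lines in 7.5 μl of DMEM/F12 or RPMI containing 10% FBS. After 24 hours at 37°C and 5% CO2, cells were dosed for 72 hours with final DMSO typically 0.2%, and viability was read by CellTiter-Glo 2.0 luminescence scaled between blank-well and DMSO-well means. The single-agent IC50 was taken from a logistic fit of the dose responses made with a non-linear mixed effects model, that logistic curve having two parameters.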

AZD5363 = compound: C1CN(CCC1(C(=O)N[C@@H](CCO)C2=CC=C(C=C2)Cl)N)C3=NC=NC4=C3C=CN4 [AZD5363]; settings: max 10 µM
Outline: as §1

AZD1775 = compound: C=CCn1c(=O)c2cnc(Nc3ccc(N4CCN(C)CC4)cc3)nc2n1-c1cccc(C(C)(C)O)n1 [AZD1775]; settings: max 3 µM
Outline: as §1

Trametinib = compound: CC(=O)Nc1cccc(-n2c(=O)n(C3CC3)c(=O)c3c(Nc4ccc(I)cc4F)n(C)c(=O)c(C)c32)c1 [Trametinib]; settings: max 1 µM
Outline: as §1

Paclitaxel = compound: CC(=O)O[C@H]1C(=O)[C@@]2(C)[C@H]([C@H](OC(=O)c3ccccc3)[C@]3(O)C[C@H](OC(=O)[C@H](O)[C@@H](NC(=O)c4ccccc4)c4ccccc4)C(C)=C1C3(C)C)[C@]1(OC(C)=O)CO[C@@H]1C[C@@H]2O [Paclitaxel]; settings: max 3 µM
Outline: as §1

Palbociclib = compound: CC(=O)c1c(C)c2cnc(Nc3ccc(N4CCNCC4)cn3)nc2n(C2CCCC2)c1=O [Palbociclib]; settings: max 10 µM
Outline: as §1

AZD1390 = compound: CC(C)n1c(=O)n(C)c2cnc3cc(F)c(-c4ccc(OCCCN5CCCCC5)nc4)cc3c21 [AZD1390]; settings: max 0.3 µM
Outline: as §1

Venetoclax = compound: CC1(C)CCC(CN2CCN(c3ccc(C(=O)NS(=O)(=O)c4ccc(NCC5CCOCC5)c([N+](=O)[O-])c4)c(Oc4cnc5[nH]ccc5c4)c3)CC2)=C(c2ccc(Cl)cc2)C1 [Venetoclax]; settings: max 1 µM
Outline: as §1

Dasatinib = compound: CC1=C(C(=CC=C1)Cl)NC(=O)C2=CN=C(S2)NC3=CC(=NC(=N3)C)N4CCN(CC4)CCO [Dasatinib]; settings: max 2 µM
Outline: as §1

SG3199 = compound: CC1=CN2[C@@H](C1)C=NC3=CC(=C(C=C3C2=O)OC)OCCCCCOC4=C(C=C5C(=C4)N=C[C@@H]6CC(=CN6C5=O)C)OC [SG3199]; settings: max 0.001 µM
Outline: as §1

AZD2811 = compound: CCN(CCO)CCCOc1ccc2c(Nc3cc(CC(=O)Nc4cccc(F)c4)[nH]n3)ncnc2c1 [AZD2811]; settings: max 1 µM
Outline: as §1

SN-38 = compound: CCc1c2c(nc3ccc(O)cc13)-c1cc3c(c(=O)n1C2)COC(=O)[C@]3(O)CC [SN-38]; settings: max 0.3 µM
Outline: as §1

AZD0156 = compound: CN(C)CCCOc1ccc(-c2ccc3ncc4c(c3c2)n(C2CCOCC2)c(=O)n4C)cn1 [AZD0156]; settings: max 3 µM
Outline: as §1

AZD4320 = compound: CN(CC[C@H](CSC1=CC=CC=C1)NC2=C(C=C(C=C2)S(=O)(=O)NC(=O)C3=CC=C(C=C3)N4CCC(CC4)[C@H](C5=CC=CC=C5C6=CC=C(C=C6)Cl)O)S(=O)(=O)C(F)(F)F)CCO [AZD4320]; settings: max 1 µM
Outline: as §1

Alisertib = compound: COc1cc(Nc2ncc3c(n2)-c2ccc(Cl)cc2C(c2c(F)cccc2OC)=NC3)ccc1C(=O)O [Alisertib]; settings: max 10 µM
Outline: as §1

Etoposide = compound: COc1cc([C@@H]2c3cc4c(cc3[C@@H](O[C@@H]3O[C@@H]5CO[C@@H](C)O[C@H]5[C@H](O)[C@H]3O)[C@H]3COC(=O)[C@H]23)OCO4)cc(OC)c1O [Etoposide]; settings: max 10 µM
Outline: as §1

Gefitinib = compound: COc1cc2ncnc(Nc3ccc(F)c(Cl)c3)c2cc1OCCCN1CCOCC1 [Gefitinib]; settings: max 10 µM
Outline: as §1

Prexasertib = compound: COc1cccc(OCCCN)c1-c1cc(Nc2cnc(C#N)cn2)n[nH]1 [Prexasertib]; settings: max 1 µM
Outline: as §1

Doxorubicin = compound: COc1cccc2c1C(=O)c1c(O)c3c(c(O)c1C2=O)C[C@@](O)(C(=O)CO)C[C@@H]3O[C@H]1C[C@H](N)[C@H](O)[C@H](C)O1 [Doxorubicin]; settings: max 1 µM
Outline: as §1

AZD5153 = compound: COc1nnc2ccc(N3CCC(c4ccc(OCCN5CCN(C)C(=O)[C@H]5C)cc4)CC3)nn12 [AZD5153]; settings: max 1 µM
Outline: as §1

Lapatinib = compound: CS(=O)(=O)CCNCc1ccc(-c2ccc3ncnc(Nc4ccc(OCc5cccc(F)c5)c(Cl)c4)c3c2)o1 [Lapatinib]; settings: max 10 µM
Outline: as §1

AZD8186 = compound: C[C@@H](Nc1cc(F)cc(F)c1)c1cc(C(=O)N(C)C)cc2c(=O)cc(N3CCOCC3)oc12 [AZD8186]; settings: max 10 µM
Outline: as §1

Crizotinib = compound: C[C@@H](Oc1cc(-c2cnn(C3CCNCC3)c2)cnc1N)c1c(Cl)ccc(F)c1Cl [Crizotinib]; settings: max 10 µM
Outline: as §1

Savolitinib = compound: C[C@@H](c1ccc2nccn2c1)n1nnc2ncc(-c3cnn(C)c3)nc21 [Savolitinib]; settings: max 1 µM
Outline: as §1

AZD6738 = compound: C[C@@H]1COCCN1C2=NC(=NC(=C2)C3(CC3)[S@](=N)(=O)C)C4=C5C=CNC5=NC=C4 [AZD6738]; settings: max 10 µM
Outline: as §1

AZD5991 = compound: Cc1c2c(nn1C)CSCc1cc(n(C)n1)CSc1cc(c3ccccc3c1)OCCCc1c(C(=O)O)n(C)c3c-2c(Cl)ccc13 [AZD5991]; settings: max 1 µM
Outline: as §1

AZD7648 = compound: Cc1cc2ncnn2cc1Nc1ncc2c(n1)n(C1CCOCC1)c(=O)n2C [AZD7648]; settings: max 10 µM
Outline: as §1

Taselisib = compound: Cc1nc(-c2cn3c(n2)-c2ccc(-c4cnn(C(C)(C)C(N)=O)c4)cc2OCC3)n(C(C)C)n1 [Taselisib]; settings: max 10 µM
Outline: as §1

Selumetinib = compound: Cn1cnc2c(F)c(Nc3ccc(Br)cc3Cl)c(C(=O)NOCCO)cc21 [Selumetinib]; settings: max 10 µM
Outline: as §1

SRA737 = compound: N#Cc1cnc(Nc2cc(NC[C@H]3CNCCO3)c(C(F)(F)F)cn2)cn1 [SRA737]; settings: max 10 µM
Outline: as §1

MK-2206 = compound: NC1(c2ccc(-c3nc4ccn5c(=O)[nH]nc5c4cc3-c3ccccc3)cc2)CCC1 [MK-2206]; settings: max 10 µM
Outline: as §1

Gemcitabine = compound: Nc1ccn([C@@H]2O[C@H](CO)[C@@H](O)C2(F)F)c(=O)n1 [Gemcitabine]; settings: max 0.3 µM
Outline: as §1

[1] = compound: O=C(Nc1ccc2[nH]nc(-c3ccncc3)c2c1)[C@@H]1CCN(CC(=O)N2CCN(c3ccc(-c4ncccn4)cc3)CC2)C1; settings: max 5 µM
Outline: as §1

Olaparib = compound: O=C(c1cc(Cc2n[nH]c(=O)c3ccccc23)ccc1F)N1CCN(C(=O)C2CC2)CC1 [Olaparib]; settings: max 10 µM
Outline: as §1

5-Fluorouracil = compound: O=c1[nH]cc(F)c(=O)[nH]1 [5-Fluorouracil]; settings: max 20 µM
Outline: as §1

| Cell Line | IC50, cell viability 72 h (Carboplatin) [nM] | IC50, cell viability 72 h (AZD5363) [nM] | IC50, cell viability 72 h (AZD1775) [nM] | IC50, cell viability 72 h (Trametinib) [nM] | IC50, cell viability 72 h (Paclitaxel) [nM] | IC50, cell viability 72 h (Palbociclib) [nM] | IC50, cell viability 72 h (AZD1390) [nM] | IC50, cell viability 72 h (Venetoclax) [nM] | IC50, cell viability 72 h (Dasatinib) [nM] | IC50, cell viability 72 h (SG3199) [nM] | IC50, cell viability 72 h (AZD2811) [nM] | IC50, cell viability 72 h (SN-38) [nM] | IC50, cell viability 72 h (AZD0156) [nM] | IC50, cell viability 72 h (AZD4320) [nM] | IC50, cell viability 72 h (Alisertib) [nM] | IC50, cell viability 72 h (Etoposide) [nM] | IC50, cell viability 72 h (Gefitinib) [nM] | IC50, cell viability 72 h (Prexasertib) [nM] | IC50, cell viability 72 h (Doxorubicin) [nM] | IC50, cell viability 72 h (AZD5153) [nM] | IC50, cell viability 72 h (Lapatinib) [nM] | IC50, cell viability 72 h (AZD8186) [nM] | IC50, cell viability 72 h (Crizotinib) [nM] | IC50, cell viability 72 h (Savolitinib) [nM] | IC50, cell viability 72 h (AZD6738) [nM] | IC50, cell viability 72 h (AZD5991) [nM] | IC50, cell viability 72 h (AZD7648) [nM] | IC50, cell viability 72 h (Taselisib) [nM] | IC50, cell viability 72 h (Selumetinib) [nM] | IC50, cell viability 72 h (SRA737) [nM] | IC50, cell viability 72 h (MK-2206) [nM] | IC50, cell viability 72 h (Gemcitabine) [nM] | IC50, cell viability 72 h [1] [nM] | IC50, cell viability 72 h (Olaparib) [nM] | IC50, cell viability 72 h (5-Fluorouracil) [nM] |
| --- | --- | --- | --- | --- | --- | --- | --- | --- | --- | --- | --- | --- | --- | --- | --- | --- | --- | --- | --- | --- | --- | --- | --- | --- | --- | --- | --- | --- | --- | --- | --- | --- | --- | --- | --- |
| IA-LM (Non-Small Cell Lung Carcinoma) | > 10000 | > 10000 | > 3000 | > 1000 | > 3000 | > 10000 | > 300 | > 1000 | > 2000 | > 1 | > 1000 | 50 | > 3000 | > 1000 | > 10000 | > 10000 | > 10000 | > 1000 | > 1000 | > 1000 | > 10000 | > 10000 | > 10000 | > 1000 | > 10000 | > 1000 | > 10000 | > 10000 | > 10000 | > 10000 | > 10000 | > 300 | > 5000 | > 10000 | > 20000 |
| IST-MEL1 (Melanoma) | > 10000 | > 10000 | 1480 | 934 | 252 | > 10000 | > 300 | > 1000 | > 2000 | > 1 | > 1000 | 18.1 | > 3000 | > 1000 | > 10000 | 9750 | > 10000 | 39.6 | 677 | > 1000 | > 10000 | > 10000 | > 10000 | > 1000 | 5600 | > 1000 | > 10000 | > 10000 | > 10000 | > 10000 | > 10000 | 70.9 | > 5000 | > 10000 | > 20000 |
| KALS-1 (Glioblastoma) | > 10000 | > 10000 | 1190 | 260 | 17.1 | > 10000 | > 300 | > 1000 | 1160 | > 1 | > 1000 | 262 | > 3000 | > 1000 | > 10000 | > 10000 | > 10000 | 10.9 | > 1000 | 254 | > 10000 | > 10000 | > 10000 | > 1000 | 2390 | > 1000 | > 10000 | > 10000 | > 10000 | 2710 | > 10000 | 297 | 1270 | > 10000 | > 20000 |
| LCLC-103H (Non-Small Cell Lung Carcinoma) | > 10000 | > 10000 | 2190 | > 1000 | 17.8 | > 10000 | > 300 | > 1000 | > 2000 | > 1 | > 1000 | > 300 | > 3000 | > 1000 | > 10000 | > 10000 | > 10000 | 88.1 | > 1000 | > 1000 | > 10000 | > 10000 | > 10000 | > 1000 | > 10000 | > 1000 | > 10000 | > 10000 | > 10000 | > 10000 | > 10000 | > 300 | > 5000 | > 10000 | > 20000 |
| LS-1034 (Colorectal Carcinoma) | > 10000 | > 10000 | 918 | 52 | 590 | > 10000 | > 300 | > 1000 | > 2000 | > 1 | > 1000 | > 300 | > 3000 | > 1000 | > 10000 | > 10000 | > 10000 | 238 | > 1000 | 850 | > 10000 | > 10000 | > 10000 | > 1000 | 6050 | > 1000 | > 10000 | > 10000 | 2420 | > 10000 | > 10000 | 120 | > 5000 | > 10000 | > 20000 |
